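Interpolation was linear, between the two tested concentrations surrounding the appropriate level; five concentrations were tested over 48 hours in 96-well plates. GI50: concentration for 50% inhibition of growth.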 Calls of active or inactive are those of the source. Cut-off read from the data, not from the text of the source: active = GI50 up to about 1.1 µM and inactive = higher.
Legend:
Assay in all cases: inhibition of tumour cell growth, NCI panel, 48 h
K562 = system: K562
SW-620 = system: SW-620
SK-OV-3 = system: SK-OV-3
HCT-15 = system: HCT-15
SK-MEL-28 = system: SK-MEL-28
MOLT-4 = system: MOLT-4
SNB-19 = system: SNB-19
Malme-3M = system: Malme-3M
A549 = system: A549
CAKI-1 = system: CAKI-1
COLO 205 = system: COLO 205
UACC-257 = system: UACC-257
NCI-H226 = system: NCI-H226
SF-268 = system: SF-268
HCT-116 = system: HCT-116
SF-539 = system: SF-539
SN12C = system: SN12C
U-251 = system: U-251
IGROV-1 = system: IGROV-1
HOP-62 = system: HOP-62

O=C(Nc1cccc(NC(=O)C(=O)C2CCC3=C(Sc4ccccc4N3)C2=O)n1)C(=O)C1CCC2=C(Sc3ccccc3N2)C1=O (stereo not drawn)
GI50 (K562): 43.7 µM (inactive)
GI50 (SW-620): 40.7 µM (inactive)
GI50 (SK-OV-3): > 100 µM (inactive)
GI50 (HCT-15): 30.7 µM
GI50 (SK-MEL-28): > 100 µM (inactive)
GI50 (MOLT-4): 68.9 µM (inactive)
GI50 (SNB-19): 73.6 µM (inactive)
GI50 (Malme-3M): > 100 µM (inactive)
GI50 (A549): > 100 µM (inactive)
GI50 (CAKI-1): 38.3 µM (inactive)
GI50 (COLO 205): 37.2 µM (inactive)
GI50 (UACC-257): > 100 µM (inactive)
GI50 (NCI-H226): 26.5 µM (inactive)
GI50 (SF-268): 44.8 µM (inactive)
GI50 (HCT-116): 40.6 µM (inactive)
GI50 (SF-539): 13.1 µM (inactive)
GI50 (SN12C): 74.3 µM (inactive)
GI50 (U-251): 45.1 µM (inactive)
GI50 (IGROV-1): 32.9 µM (inactive)

C/C(=N\NC(=O)Nc1ccccc1Cl)c1ccc(O)cc1
GI50 (K562): 8.02 µM (inactive)
GI50 (SW-620): > 100 µM (inactive)
GI50 (SK-OV-3): > 100 µM (inactive)
GI50 (HCT-15): 2.28 µM
GI50 (SK-MEL-28): > 100 µM (inactive)
GI50 (MOLT-4): 7.85 µM (inactive)
GI50 (SNB-19): > 100 µM (inactive)
GI50 (Malme-3M): > 100 µM (inactive)
GI50 (A549): > 100 µM (inactive)
GI50 (CAKI-1): > 100 µM (inactive)
GI50 (COLO 205): > 100 µM (inactive)
GI50 (UACC-257): > 100 µM (inactive)
GI50 (NCI-H226): > 100 µM (inactive)
GI50 (SF-268): > 100 µM (inactive)
GI50 (HCT-116): 48.6 µM (inactive)
GI50 (SF-539): > 100 µM (inactive)
GI50 (SN12C): > 100 µM (inactive)
GI50 (U-251): 77.6 µM (inactive)
GI50 (IGROV-1): > 100 µM (inactive)

C/C(Nc1ccc(Cl)cc1)=C1/CCOC1=O
GI50 (K562): 0.346 µM (active)
GI50 (SW-620): > 53.2 µM (inactive)
GI50 (SK-OV-3): 59.2 µM (inactive)
GI50 (HCT-15): > 100 µM
GI50 (SK-MEL-28): > 100 µM (inactive)
GI50 (MOLT-4): 1.93 µM (inactive)
GI50 (SNB-19): > 100 µM (inactive)
GI50 (Malme-3M): > 100 µM (inactive)
GI50 (A549): 4.89 µM (inactive)
GI50 (CAKI-1): > 66.1 µM (inactive)
GI50 (COLO 205): 1.44 µM (inactive)
GI50 (UACC-257): 46.5 µM (inactive)
GI50 (NCI-H226): > 100 µM (inactive)
GI50 (SF-268): > 100 µM (inactive)
GI50 (SF-539): > 25.4 µM (inactive)
GI50 (SN12C): > 100 µM (inactive)
GI50 (U-251): > 100 µM (inactive)
GI50 (IGROV-1): > 23 µM (inactive)

CN(C(=O)CCC(=O)O)c1ccccc1C(=O)O
GI50 (K562): > 100 µM (inactive)
GI50 (SW-620): > 100 µM (inactive)
GI50 (SK-OV-3): > 100 µM (inactive)
GI50 (HCT-15): > 100 µM
GI50 (SK-MEL-28): > 100 µM (inactive)
GI50 (MOLT-4): > 100 µM (inactive)
GI50 (SNB-19): > 100 µM (inactive)
GI50 (Malme-3M): > 100 µM (inactive)
GI50 (A549): > 100 µM (inactive)
GI50 (CAKI-1): > 100 µM (inactive)
GI50 (COLO 205): > 100 µM (inactive)
GI50 (UACC-257): 40.4 µM (inactive)
GI50 (NCI-H226): > 100 µM (inactive)
GI50 (SF-268): > 100 µM (inactive)
GI50 (HCT-116): > 100 µM (inactive)
GI50 (SF-539): > 100 µM (inactive)
GI50 (U-251): > 100 µM (inactive)
GI50 (IGROV-1): > 100 µM (inactive)

O=C1NC(=O)[C@H]2C3C=CC([C@@H]12)[C@@H]1C(=O)NC(=O)[C@H]31
GI50 (K562): > 100 µM (inactive)
GI50 (SW-620): > 100 µM (inactive)
GI50 (HCT-15): > 100 µM
GI50 (SK-MEL-28): > 100 µM (inactive)
GI50 (MOLT-4): > 100 µM (inactive)
GI50 (SNB-19): > 100 µM (inactive)
GI50 (Malme-3M): > 100 µM (inactive)
GI50 (A549): > 100 µM (inactive)
GI50 (HOP-62): > 100 µM (inactive)
GI50 (CAKI-1): > 100 µM (inactive)
GI50 (COLO 205): > 100 µM (inactive)
GI50 (UACC-257): > 100 µM (inactive)
GI50 (NCI-H226): > 100 µM (inactive)
GI50 (SF-268): > 100 µM (inactive)
GI50 (HCT-116): > 100 µM (inactive)
GI50 (SF-539): > 100 µM (inactive)
GI50 (SN12C): > 100 µM (inactive)
GI50 (U-251): > 100 µM (inactive)
GI50 (IGROV-1): > 100 µM (inactive)

Oc1cc(-c2ccc3ccccc3c2)nc2ncc(Cl)cc12
GI50 (K562): 3.23 µM (inactive)
GI50 (SW-620): 4.12 µM (inactive)
GI50 (SK-OV-3): 4.73 µM (inactive)
GI50 (HCT-15): 3.57 µM
GI50 (SK-MEL-28): 40.9 µM (inactive)
GI50 (MOLT-4): 3.27 µM (inactive)
GI50 (SNB-19): 9.31 µM (inactive)
GI50 (Malme-3M): 4.05 µM (inactive)
GI50 (A549): 6.92 µM (inactive)
GI50 (HOP-62): 8.59 µM (inactive)
GI50 (COLO 205): 3.81 µM (inactive)
GI50 (UACC-257): 9.06 µM (inactive)
GI50 (NCI-H226): 12 µM (inactive)
GI50 (SF-268): 4.74 µM (inactive)
GI50 (SF-539): 5.62 µM (inactive)
GI50 (SN12C): 9.06 µM (inactive)
GI50 (IGROV-1): 8.09 µM (inactive)

C=C1C(=O)O[C@@H]2[C@H]1CCC(C)=C1C=CC(=O)[C@]12C
GI50 (K562): 4.49 µM (inactive)
GI50 (SW-620): 6.21 µM (inactive)
GI50 (SK-OV-3): 27.2 µM (inactive)
GI50 (SK-MEL-28): 11.1 µM (inactive)
GI50 (MOLT-4): 10.9 µM (inactive)
GI50 (SNB-19): 23.7 µM (inactive)
GI50 (Malme-3M): > 10 µM (inactive)
GI50 (A549): 23.6 µM (inactive)
GI50 (CAKI-1): 15.1 µM (inactive)
GI50 (COLO 205): 8.36 µM (inactive)
GI50 (UACC-257): 12.4 µM (inactive)
GI50 (NCI-H226): 22.9 µM (inactive)
GI50 (SF-268): 23.9 µM (inactive)
GI50 (HCT-116): 12.2 µM (inactive)
GI50 (SF-539): 15.5 µM (inactive)
GI50 (SN12C): 12.6 µM (inactive)
GI50 (U-251): 22.4 µM (inactive)
GI50 (IGROV-1): 21.8 µM (inactive)

— ChEMBL document CHEMBL1201862, “PubChem BioAssay data set” (2004)
